In patent publication US20110319384A1, “Pharmaceutical Compositions” (priority 2005, published 2011):
Where two headings read alike, the source gives them in different places.

Columns and labels:
[1] = tested on: elderly patients with MDD and CV damage
[2] = hypothesis to be tested, compared to paroxetine
[3] = hypothesis to be tested, vs placebo
[4] = add-on to antidepressants, mean dose 300 mg/day

Compound: OCCOCCN1CCN(C2=Nc3ccccc3Sc3ccccc32)CC1 [quetiapine, 11-[4-[2-(2-hydroxyethoxy)ethyl]-1-piperazinyl]-dibenzo[b,f][1,4]thiazepine]
- Change from randomization in the Hamilton Anxiety Scale (HAM-A) total score at Day 57 (patients with GAD; claim to be addressed, primary outcome, vs placebo): more effective
- Adverse events of nausea or vomiting (patients with GAD; [2]): lower levels of nausea and
- Incidence of withdrawals due to adverse events (patients with GAD; [2]): Quetiapine has similar
- Sexual dysfunction: change from randomization in CSFQ total score at Day 57 (patients with GAD; [2]): lower levels of sexual
- Somnolence: severity of AEs, time of first instance, withdrawals due to AE of somnolence (patients with GAD; hypothesis to be tested, compared to placebo): generally mild, occurs early in
- Change from randomization in HAM-A total score, HAM-A psychic cluster, HAM-A somatic cluster and CGI-S score at Day 4 (patients with GAD; hypothesis to be tested, compared to placebo, Day 4): anti-anxiety effect by Day 4
- Change from randomization in MADRS total score at Day 57 (patients with GAD; hypothesis to be tested, depressive symptoms in GAD, vs placebo): Quetiapine is more effective
- Adverse events related to discontinuation; change in Discontinuation-Emergent Signs and Symptoms total score at Day 64 and Day 71 (patients with GAD; hypothesis to be tested, discontinuation symptoms): Quetiapine does not have
- Change from normal to Clinically Important in Physical Examinations; Laboratory values; Vital signs; ECGs (patients with GAD; hypothesis to be tested, once daily up to 150 mg/day): 150 mg/day is safe and well
- Change from randomization in Q-les-Q Item 15 (Satisfaction with medication) at Day 57 (patients with GAD; hypothesis to be tested, patient satisfaction, vs placebo): Quetiapine is more effective
- Change from randomization in Q-les-Q total score and Q-les-Q Item 16 (Overall life satisfaction) at Day 57 (patients with GAD; hypothesis to be tested, quality of life, vs placebo): Quetiapine is more effective
- HAM-A Response (decrease from randomization total score of ≧50%) at Day 4 (patients with GAD; hypothesis to be tested, response rate vs placebo, Day 4): Quetiapine has a greater
- HAM-A Response (decrease from randomization total score of ≧50%) at Day 57 (patients with GAD; hypothesis to be tested, response rate vs placebo, Day 57): Quetiapine has a greater
- Change from randomization in PSQI score and MADRS sleep disturbance factor (Item 4) at Day 57 (patients with GAD; hypothesis to be tested, sleep quality, vs placebo): Quetiapine is superior to
- Change from randomization in HAM-A total score, CGI Global Improvement, HAM-A psychic and somatic clusters at Day 57 (patients with GAD; hypothesis to be tested, versus paroxetine): Quetiapine is at least as
- Adverse events of nausea or vomiting (patients with GAD; [3]): placebo levels of nausea and
- Adverse events related to EPS (including akathisia); change in SAS and BARS scores at Day 57 (patients with GAD; [3]): placebo levels of EPS
- HAM-A Remission (HAM-A total score ≦7) at Day 57 (patients with GAD; [3]): Quetiapine is better than
- Sexual dysfunction: change from randomization in CSFQ total score at Day 57 (patients with GAD; [3]): placebo levels of sexual
- Change from randomization in CGI-S score, CGI-I (much or very much improved), HAM-A psychic and somatic clusters at Day 57 (patients with GAD; hypothesis to be tested, vs placebo, across anxiety symptoms): Quetiapine is more effective
- mean CGI-S score after 6 months ([1]; add-on to antidepressants): about 5
- mean CGI-S score at baseline ([1]; add-on to antidepressants): about 6
- mean HAM-D score after 6 months [1, 4]: about 15
- mean HAM-D score at baseline [1, 4]: about 27
- discontinuation of the study ([1]; in vivo): No patients discontinued the study
- side effects reported ([1]; the only side effects reported): Sedation and drowsiness
